Test results taken from patent publication US8129369B2, “Antifungal compounds containing benzothiazinone, benzoxazinone or benzoxazolinone and process thereof” (Council of Scientific & Industrial Research;, priority 2008, dated 2012).
In brackets after ≈: the same amount, converted by molar mass.

Key:
[1] = system: C. albicans ATCC 24433; assay: MIC by broth macro-dilution method, C. albicans ATCC 24433; type: cell-based, Candida albicans; conditions: 48 hours; for MIC: Candida albicans, ATCC24433, RPMI 1640 with MOPS, MIC = concentration exhibiting 80% inhibition vs positive growth control
Experimental: (§1) The compounds of Formula 1 were tested for antifungal activity against various fungi including Candida albicans, Aspergillus niger and Fusarium proliferatum. In vitro evaluation of antifungal activity was performed by determining the minimum inhibitory concentration (MIC) following standard methods (CLSI: Reference method for broth dilution antifungal susceptibility testing of yeasts; Approved standard, second edition M27-A2, 2002; CLSI: Reference method for broth dilution antifungal susceptibility testing of filamentous fungi; Approved standard M38-A, 2002). Anti-fungal susceptibility testing of these anti-fungal compounds was done by broth dilution method using RPMI 1640 medium with MOPS buffer. Known anti-fungal agents like Fluconazole and Amphotericin-B were used as standards. End points were determined after 48 hours visually and by using spectrophotometer wherever necessary.
(§2) >16 μg/ml: The novel compounds of formula 1 are generally tested for concentration range from 0.03 μg/ml to the concentration till it was in solution (For e.g.: Back precipitation 128-32 μg/ml, Concentration for assay: 0.03 to 16 μg/ml).

[2] = system: A. niger ATCC 16404; assay: MIC by broth macro-dilution method, A. niger ATCC 16404; type: cell-based, Aspergillus niger; conditions: 48 hours; for MIC: Aspergillus niger, ATCC16404, RPMI 1640 with MOPS, MIC = concentration exhibiting 80% inhibition vs positive growth control
Experimental: as §1, §2

[3] = system: F. proliferatum ATCC 10052; assay: MIC by broth macro-dilution method, F. proliferatum ATCC 10052; type: cell-based, Fusarium proliferatum; conditions: 48 hours; for MIC: Fusarium proliferatum, ATCC10052, RPMI 1640 with MOPS, MIC = concentration exhibiting 80% inhibition vs positive growth control
Experimental: as §1, §2

[4] = system: C. albicans ATCC24433; assay: MIC by broth micro-dilution method, C. albicans ATCC24433; type: cell-based, Candida albicans; conditions: for MIC: Candida albicans, ATCC24433, MIC = concentration exhibiting 50% inhibition vs positive control
Experimental: as §1

[5] = system: C. albicans ATCC10231; assay: MIC by broth micro-dilution method, C. albicans ATCC10231; type: cell-based, Candida albicans; conditions: for MIC: Candida albicans, ATCC10231, MIC = concentration exhibiting 50% inhibition vs positive control
Experimental: as §1

[6] = system: C. albicans ATCC2091; assay: MIC by broth micro-dilution method, C. albicans ATCC2091; type: cell-based, Candida albicans; conditions: for MIC: Candida albicans, ATCC2091, MIC = concentration exhibiting 50% inhibition vs positive control
Experimental: as §1

[7] = system: C. albicans ATCC90028; assay: MIC by broth micro-dilution method, C. albicans ATCC90028; type: cell-based, Candida albicans; conditions: for MIC: Candida albicans, ATCC90028, MIC = concentration exhibiting 50% inhibition vs positive control
Experimental: as §1

[8] = system: C. glabrata ATCC90030; assay: MIC by broth micro-dilution method, C. glabrata ATCC90030; type: cell-based; conditions: for MIC: Nakaseomyces glabratus, ATCC90030, MIC = concentration exhibiting 50% inhibition vs positive control
Experimental: as §1

[9] = system: C. krusei ATCC6258; assay: MIC by broth micro-dilution method, C. krusei ATCC6258; type: cell-based; conditions: for MIC: Pichia kudriavzevii, ATCC6258, MIC = concentration exhibiting 50% inhibition vs positive control
Experimental: as §1

[10] = system: C. tropicalis ATCC750; assay: MIC by broth micro-dilution method, C. tropicalis ATCC750; type: cell-based; conditions: for MIC: Candida tropicalis, ATCC750, MIC = concentration exhibiting 50% inhibition vs positive control
Experimental: as §1

[11] = RPMI 1640 with MOPS, MIC = concentration exhibiting complete inhibition (Amphotericin B)
[12] = MIC = concentration exhibiting complete inhibition (Amphotericin B)

Compound | MIC [1] [µg/mL] | MIC [2] [µg/mL] | MIC [3] [µg/mL] | other results
O=C1COc2ccc(Br)cc2N1CC(O)(Cn1cncn1)c1ccc(F)cc1F (stereo not shown) [Compound 1k, 6-Bromo-4-[2-(2,4-difluorophenyl)-2-hydroxy-3-[1,2,4]triazol-1-yl-propyl]-4H-benzo[1,4]oxazin-3-one] | 16 (≈ 34.4 µM) | > 32 | > 32 | –
COc1ccc2c(c1)SCC(=O)N2CC(O)(Cn1cncn1)c1ccc(F)cc1 (stereo not shown) [Compound 1h, 4-[2-(4-Fluorophenyl)-2-hydroxy-3-[1,2,4]triazol-1-yl-propyl]-7-methoxy-4H-benzo[1,4]thiazin-3-one] | 8 (≈ 19.3 µM) | > 16 | > 16 | –
CC(=O)c1ccc2c(c1)N(CC(O)(Cn1cncn1)c1ccc(F)cc1F)C(=O)CO2 (stereo not shown) [Compound 1m, 6-Acetyl-4-[2-(2,4-difluorophenyl)-2-hydroxy-3-[1,2,4]-triazol-1-yl-propyl]-4H-benzo[1,4]oxazin-3-one] | > 64 | > 64 | > 64 | –
O=C1COc2ccc(Cl)cc2N1CC(O)(Cn1cncn1)c1ccc(F)cc1F (stereo not shown) [Compound 1j, 6-Chloro-4-[2-(2,4-difluorophenyl)-2-hydroxy-3-[1,2,4]triazol-1-yl-propyl]-4H-benzo[1,4]oxazin-3-one] | 8 (≈ 19 µM) | > 32 | > 32 | –
CC(=O)c1ccc2c(c1)N(CC(O)(Cn1cncn1)c1ccc(Br)cc1)C(=O)CO2 (stereo not shown) [Compound 1p, 6-Acetyl-4-[2-(4-bromophenyl)-2-hydroxy-3-[1,2,4]triazol-1-yl-propyl]-4H-benzo[1,4]oxazin-3-one] | 32 (≈ 67.9 µM) | > 32 | > 32 | –
O=C1COc2ccc([N+](=O)[O-])cc2N1CC(O)(Cn1cncn1)c1ccc(F)cc1F (stereo not shown) [Compound 1l, 4-[2-(2,4-Difluorophenyl)-2-hydroxy-3-[1,2,4]triazol-1-yl-propyl]-6-nitro-4H-benzo[1,4]oxazin-3-one] | 32 (≈ 74.2 µM) | > 32 | > 32 | –
O=C1COc2ccc(Cl)cc2N1CC(O)(Cn1cncn1)c1ccc(Br)cc1 (stereo not shown) [Compound 1n, 4-[2-(4-Bromophenyl)-2-hydroxy-3-[1,2,4]-triazol-1-yl-propyl]-6-chloro-4H-benzo[1,4]oxazin-3-one] | 4 (≈ 8.63 µM) | > 16 | > 16 | –
C[C@@H]1[C@H](O)[C@@H](C)/C=C/C=C/C=C/C=C/C=C/C=C/C=C/[C@H](O[C@@H]2O[C@H](C)[C@@H](O)[C@H](N)[C@@H]2O)C[C@@H]2O[C@](O)(C[C@@H](O)C[C@@H](O)[C@H](O)CC[C@@H](O)C[C@@H](O)CC(=O)O[C@H]1C)C[C@H](O)[C@H]2C(=O)O [Amphotericin B, reference compound] | – | – | – | MIC C. albicans ATCC24433 [1, 11]: 0.25 µg/mL (≈ 0.271 µM); MIC A. niger ATCC 16404 [2, 11]: 1 µg/mL (≈ 1.08 µM); MIC F. proliferatum ATCC 10052 [3, 11]: 2 µg/mL (≈ 2.16 µM); MIC C. albicans ATCC24433 [4, 12]: 0.25 µg/mL (≈ 0.271 µM); MIC C. albicans ATCC10231 [5, 12]: 0.5 µg/mL (≈ 0.541 µM); MIC C. albicans ATCC2091 [6, 12]: 0.5 µg/mL (≈ 0.541 µM); MIC C. albicans ATCC90028 [7, 12]: 0.5 µg/mL (≈ 0.541 µM); MIC C. glabrata ATCC90030 [8, 12]: 0.25 µg/mL (≈ 0.271 µM); MIC C. krusei ATCC6258 [9, 12]: 0.5 µg/mL (≈ 0.541 µM); MIC C. tropicalis ATCC750 [10, 12]: 0.5 µg/mL (≈ 0.541 µM)

Continued by falling MIC [1], values first:

MIC [1] [µg/mL] | MIC [2] [µg/mL] | MIC [3] [µg/mL] | Compound | other results
4 (≈ 9.25 µM) | > 32 | > 32 | COc1ccc2c(c1)SCC(=O)N2CC(O)(Cn1cncn1)c1ccc(F)cc1F (stereo not shown) [Compound 1d, 4-[2-(2,4-Difluorophenyl)-2-hydroxy-3-[1,2,4]triazol-1-yl-propyl]-7-methoxy-4H-benzo[1,4]thiazin-3-one] | –
2 (≈ 4.21 µM) | > 16 | > 16 | COc1ccc2c(c1)SCC(=O)N2CC(O)(Cn1cncn1)c1ccc(Br)cc1 (stereo not shown) [Compound 1g, 4-[2-(4-Bromophenyl)-2-hydroxy-3-[1,2,4]triazol-1-yl-propyl]-7-methoxy-4H-benzo[1,4]thiazin-3-one] | –
2 (≈ 5.37 µM) | > 128 | > 128 | O=c1oc2ccccc2n1CC(O)(Cn1cncn1)c1ccc(F)cc1F (stereo not shown) [Compound 1q, 3-[2-(2,4-Difluorophenyl)-2-hydroxy-3-[1,2,4]triazol-1-yl-propyl]-3H-benzoxazolin-2-one] | –
2 (≈ 4.77 µM) | > 16 | > 16 | O=C1CSc2cc(Cl)ccc2N1CC(O)(Cn1cncn1)c1ccc(F)cc1 (stereo not shown) [Compound 1f, 7-Chloro-4-[2-(4-fluorophenyl)-2-hydroxy-3-[1,2,4]-triazol-1-yl-propyl]-4H-benzo[1,4]thiazin-3-one] | –
2 (≈ 4.8 µM) | > 32 | > 32 | Cc1ccc2c(c1)SCC(=O)N2CC(O)(Cn1cncn1)c1ccc(F)cc1F (stereo not shown) [Compound 1e, 4-[2-(2,4-Difluorophenyl)-2-hydroxy-3-[1,2,4]triazol-1-yl-propyl]-7-methyl-4H-benzo[1,4]thiazin-3-one] | –
1 (≈ 3.27 µM) | 128 (≈ 418 µM) | > 128 | OC(Cn1cncn1)(Cn1cncn1)c1ccc(F)cc1F [Fluconazole, reference compound] | MIC [4]: 0.25 µg/mL (≈ 0.816 µM); MIC [5]: 1 µg/mL (≈ 3.27 µM); MIC [6]: 4 µg/mL (≈ 13.1 µM); MIC [7]: 0.5 µg/mL (≈ 1.63 µM); MIC [8]: 4 µg/mL (≈ 13.1 µM); MIC [9]: 64 µg/mL (≈ 209 µM); MIC [10]: 2 µg/mL (≈ 6.53 µM)
1 (≈ 2.08 µM) | > 16 | > 16 | O=C1CSc2cc(Br)ccc2N1CC(O)(Cn1cncn1)c1ccc(F)cc1F (stereo not shown) [Compound 1c, 7-Bromo-4-[2-(2,4-difluorophenyl)-2-hydroxy-3-[1,2,4]triazol-1-yl-propyl]-4H-benzo[1,4]thiazin-3-one] | –
1 (≈ 2.29 µM) | > 16 | > 16 | O=C1CSc2cc(Cl)ccc2N1CC(O)(Cn1cncn1)c1ccc(F)cc1F (stereo not shown) [Compound 1b, 7-Chloro-4-[2-(2,4-difluorophenyl)-2-hydroxy-3-[1,2,4]-triazol-1-yl-propyl]-4H-benzo[1,4]thiazin-3-one] | –
0.5 (≈ 1.29 µM) | > 64 | > 64 | O=C1COc2ccccc2N1CC(O)(Cn1cncn1)c1ccc(F)cc1F (stereo not shown) [Compound 1i, 4-[2-(2,4-Difluorophenyl)-2-hydroxy-3-[1,2,4]-triazol-1-yl-propyl]-4H-benzo[1,4]oxazin-3-one] | MIC [4]: 0.12 µg/mL (≈ 0.311 µM); MIC [5]: 0.5 µg/mL (≈ 1.29 µM); MIC [6]: 4 µg/mL (≈ 10.4 µM); MIC [7]: 0.12 µg/mL (≈ 0.311 µM); MIC [8]: 0.25 µg/mL (≈ 0.647 µM); MIC [9]: 16 µg/mL (≈ 41.4 µM); MIC [10]: 2 µg/mL (≈ 5.18 µM)
0.25 (≈ 0.621 µM) | > 64 | > 64 | O=C1CSc2ccccc2N1CC(O)(Cn1cncn1)c1ccc(F)cc1F (stereo not shown) [Compound 1a, 4-[2-(2,4-Difluorophenyl)-2-hydroxy-3-[1,2,4]triazol-1-yl-propyl]-4H-benzo[1,4]thiazin-3-one] | MIC [4]: 0.03 µg/mL (≈ 0.0745 µM); MIC [5]: 0.12 µg/mL (≈ 0.298 µM); MIC [6]: 2 µg/mL (≈ 4.97 µM); MIC [7]: 0.03 µg/mL (≈ 0.0745 µM); MIC [8]: 0.06 µg/mL (≈ 0.149 µM); MIC [9]: 4 µg/mL (≈ 9.94 µM); MIC [10]: 0.5 µg/mL (≈ 1.24 µM)
